Experimental data as given in ChEMBL document CHEMBL5726725, “Inhibitors of metallo-beta-lactamase (MBL) comprising a zinc chelating moiety” (2019).
pIC50: −log10 of the molar value.

Key:
[1] = (§1) MBL Inhibitory Activity in Constructed E. coli Cells Expressing MBLs: a. Transfer 50 μl LB with 0.8 mM IPTG (0.4 mM final concentration in assay) to each wellb. Add 1 μl inhibitor/positive control (500/1000 μM final concentration in assay) to selected wellsc. Add 50 μl overnight culture (=1) to each welld. Incubate in plate reader at 37° C. for 20 min with shakinge. Add 5 μl nitrocefin (3.2 mM) to selected wells with a multichannel pipettef. Incubate the plate in the plate reader for 3 hours, measuring nitrocefin hydrolysis at A482 every minute, with shaking in-betweeng. Measure endpoint at A600 to see how inhibitor alone effects bacterial growthh. Centrifuge the plate at 2800 rpm for 10 min, and transfer 50 μl to clean wellsi. Measure A482 endpoint.
[2] = molecular target: Metallo-beta-lactamase type 2 (Bacteria, UniProt C7C422); test: as §1
Metallo-beta-lactamase type 2, sequence (C7C422 whole entry): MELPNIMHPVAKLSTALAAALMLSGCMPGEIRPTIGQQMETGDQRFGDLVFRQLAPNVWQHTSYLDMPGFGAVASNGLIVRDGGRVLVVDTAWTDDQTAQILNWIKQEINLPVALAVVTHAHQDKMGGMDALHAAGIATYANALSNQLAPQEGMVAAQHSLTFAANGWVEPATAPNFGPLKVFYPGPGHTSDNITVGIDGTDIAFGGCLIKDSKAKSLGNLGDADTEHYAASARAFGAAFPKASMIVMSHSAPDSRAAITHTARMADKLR

For `COc1ccc(Cn2cc(CN(Cc3ccccn3)Cc3ccccn3)nn2)cc1`, the pIC50 [1] was 5.65 and the pIC50 [2] was 6.42.
